According to publication PMC3079779 (Toxicology and applied pharmacology, 2011):
“Also recorded” adds a separate entry of the source. Where two headings read alike, the source gives them in different places.

What was measured:
[1] = target: human KV1.3 voltage gated K+ channel (Homo sapiens, UniProt P22001); assay: KV1.3 thallium influx assay in KV1.3 stably transfected CHO DUKX cells; details: for KV 1.3 IC50 / KV 1.3 Efficacy (inhibition of thallium influx as a % of positive control): thallium influx in KV1.3 cells; for KV 1.3 IC50: mean ± SD from two to three experiments; for Selectivity Fold (hERG over KV1.3): potency difference KV1.3 IC50 / hERG IC50, thallium influx assays; for KV 1.3 Efficacy (inhibition of thallium influx as a % of positive control): relative to 1 μM psoralen
Chain of human KV1.3 voltage gated K+ channel (P22001 whole entry): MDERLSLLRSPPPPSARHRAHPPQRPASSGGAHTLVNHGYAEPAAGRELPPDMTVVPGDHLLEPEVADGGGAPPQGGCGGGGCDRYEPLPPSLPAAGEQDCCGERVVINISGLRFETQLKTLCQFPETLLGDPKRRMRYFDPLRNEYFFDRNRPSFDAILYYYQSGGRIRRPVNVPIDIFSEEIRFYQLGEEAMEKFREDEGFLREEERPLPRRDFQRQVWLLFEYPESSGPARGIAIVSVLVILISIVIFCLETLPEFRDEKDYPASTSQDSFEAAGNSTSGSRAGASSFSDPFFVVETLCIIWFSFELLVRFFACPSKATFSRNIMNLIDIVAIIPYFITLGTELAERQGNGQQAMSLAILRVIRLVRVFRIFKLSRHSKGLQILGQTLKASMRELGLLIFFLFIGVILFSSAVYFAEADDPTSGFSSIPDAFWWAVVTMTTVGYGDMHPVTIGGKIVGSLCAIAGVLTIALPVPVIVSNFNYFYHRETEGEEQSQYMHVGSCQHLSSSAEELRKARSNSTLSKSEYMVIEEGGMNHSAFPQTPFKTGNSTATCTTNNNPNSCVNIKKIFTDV

[2] = target: T1, hERG channel (Homo sapiens, UniProt Q12809); assay: Automated whole cell patch clamp, hERG tail current in hERG CHO-K1 cells
T1 sequence (Q12809 whole entry): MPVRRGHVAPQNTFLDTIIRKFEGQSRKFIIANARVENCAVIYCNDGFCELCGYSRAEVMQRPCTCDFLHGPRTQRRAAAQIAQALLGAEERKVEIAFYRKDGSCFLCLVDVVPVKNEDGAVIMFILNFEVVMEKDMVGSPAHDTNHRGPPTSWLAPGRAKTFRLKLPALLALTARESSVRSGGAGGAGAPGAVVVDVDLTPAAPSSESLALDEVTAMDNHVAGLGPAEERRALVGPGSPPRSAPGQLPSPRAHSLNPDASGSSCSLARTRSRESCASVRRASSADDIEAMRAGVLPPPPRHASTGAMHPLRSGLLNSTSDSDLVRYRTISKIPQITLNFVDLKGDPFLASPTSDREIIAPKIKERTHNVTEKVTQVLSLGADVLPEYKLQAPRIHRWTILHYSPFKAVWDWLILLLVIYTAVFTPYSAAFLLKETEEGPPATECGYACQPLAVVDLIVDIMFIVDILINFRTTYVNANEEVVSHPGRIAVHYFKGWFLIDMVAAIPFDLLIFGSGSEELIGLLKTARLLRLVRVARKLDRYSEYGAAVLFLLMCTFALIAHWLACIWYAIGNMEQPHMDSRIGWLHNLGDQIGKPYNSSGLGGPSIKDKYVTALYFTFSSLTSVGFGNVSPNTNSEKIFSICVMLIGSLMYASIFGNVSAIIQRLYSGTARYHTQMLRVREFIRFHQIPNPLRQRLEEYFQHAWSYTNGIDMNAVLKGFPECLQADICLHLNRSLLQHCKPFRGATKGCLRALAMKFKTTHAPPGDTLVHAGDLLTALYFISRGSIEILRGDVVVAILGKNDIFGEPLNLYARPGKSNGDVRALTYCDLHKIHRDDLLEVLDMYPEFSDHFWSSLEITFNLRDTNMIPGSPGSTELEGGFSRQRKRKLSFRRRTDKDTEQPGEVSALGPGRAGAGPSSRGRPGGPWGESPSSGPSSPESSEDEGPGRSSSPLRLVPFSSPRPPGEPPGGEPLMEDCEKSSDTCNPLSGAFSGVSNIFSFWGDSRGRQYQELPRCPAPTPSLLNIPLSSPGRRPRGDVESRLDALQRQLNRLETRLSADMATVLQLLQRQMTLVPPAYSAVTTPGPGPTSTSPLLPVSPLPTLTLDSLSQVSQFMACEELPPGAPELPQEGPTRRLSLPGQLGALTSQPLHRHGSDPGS

[3] = target: T1, hERG channel
[4] = target: T1, hERG channel; assay: FluxOR thallium influx assay in hERG transduced U-2 OS cells; details: for Confirmation Efficacy (inhibition of thallium influx as a % of positive control): confirmation study, hERG transduced cells, mean ± SD of three experiments; for IC50 in the thallium influx assay (QAC series follow-up): quaternary ammonium compound series and digitonin control, hERG cells
[5] = tested on: wild type U-2 OS cells; assay: FluxOR thallium influx assay in wild type; format: cell-based, human; details: non-hERG transduced cells
[6] = target: T1, hERG channel; remark: listed apart in the source
[7] = in vitro; format: cell-based, human; details: human, hERG transduced U-2 OS cells
[8] = tested on: hERG transduced U-2 OS cells; assay: in vitro; format: cell-based, human; details: for IC50: read-out: Cytotoxicity IC50 (cell viability, intracellular ATP content), up to 92 μM
[9] = target: T2, KV1.3 versus hERG (Homo sapiens, UniProt P22001); assay: KV1.3 thallium influx assay in KV1.3 stably transfected CHO DUKX cells; details: human
T2 sequence (P22001 whole entry): as the sequence (P22001 whole entry) above

[10] = target: T2, KV1.3 versus hERG; assay: in vitro
[11] = automated whole cell patch clamp, hERG tail current, hERG CHO-K1 cells, room temperature
[12] = 30-minute treatment, hERG transduced U-2 OS cells
[13] = read-out: Patch clamp IC50, automated whole cell patch clamp, hERG tail current, hERG CHO-K1 cells, room temperature

For `N=C(Nc1ccccc1)Nc1ccccc1` [1,3-diphenylguanidine], the “KV 1.3 IC50” value [1] was “Inactive”.

For `Nc1ccc2cc3ccccc3cc2c1` [2-aminoanthracene], the IC50 [2] was over 100 µM, the “qHTS (two runs) Efficacy (inhibition of thallium influx as a % of positive control)” value ([3]; human) was 61 ± 3% and the “Confirmation Efficacy (inhibition of thallium influx as a % of positive control)” value [4] was 67 ± 19%. The “Inhibition of thallium influx in parental (wild type) cells” value [5] was “inhibitory effect”.

For `CCCCCCc1ccc(-c2ccc(C#N)cc2)cc1` [4-N-hexyl-4′-cyanobiphenyl, 4′-N-hexyl-4-biphenylcarbonitrile], the “Confirmation IC50 (thallium influx, hERG)” value [3] was “Inactive” and the IC50 [3] was 8.2 ± 2.6 µM.

For `O=C([O-])c1c(Cl)c(Cl)c(Cl)c(Cl)c1-c1c2cc(Br)c(=O)c(Br)c-2oc2c(Br)c([O-])c(Br)cc12.[Na+].[Na+]` [D&C red dye 27], the “Confirmation Efficacy (inhibition of thallium influx as a % of positive control)” value [3] was 173 ± 41%, the IC50 [6] was over 100 µM and the “Inhibition of thallium influx in parental (wild type) cells” value [5] was “inhibitory effect”.

With `C[N+](C)(C)Cc1ccccc1` [benzyltrimethylammonium chloride] the “Patch clamp IC50” value [2, 11] was “inactive” and the “IC50 in the thallium influx assay (QAC series follow-up)” value [4] was “inactive”.

With `C[N+](C)(C)CCCCCCCCCC[N+](C)(C)C` [decamethonium dibromide] the “Patch clamp IC50” value [2, 11] was “inactive” and the “IC50 in the thallium influx assay (QAC series follow-up)” value [4] was “inactive”.

In the case of `C[C@@H]1CC[C@@]2(OC1)O[C@H]1[C@@H](O)[C@H]3[C@@H]4CC[C@H]5C[C@@H](O[C@@H]6O[C@H](CO)[C@H](O[C@@H]7O[C@H](CO)[C@@H](O)[C@H](O[C@@H]8OC[C@@H](O)[C@H](O)[C@H]8O)[C@H]7O[C@@H]7O[C@H](CO)[C@H](O)[C@H](O[C@@H]8O[C@H](CO)[C@@H](O)[C@H](O)[C@H]8O)[C@H]7O)[C@H](O)[C@H]6O)[C@H](O)C[C@]5(C)[C@H]4CC[C@]3(C)[C@H]1[C@@H]2C` [digitonin, reference compound], the “Inhibitory effect on hERG channel activity in the patch clamp experiment” value ([2]; at 1 μM (the highest noncytotoxic concentration)) is reported as “no inhibitory effect”.

With `CCCCCCCCCCCC[N+](C)(C)CCOc1ccccc1` [domiphen bromide] the IC50 [2] was 1.5 µM, the IC50 at 30 min [7] was 65 µM and the “Maximum inhibition of cell viability” value [8, 12] was 33%. The IC50 [1] was 5.2 ± 0.6 µM, the “Selectivity Fold (hERG over KV1.3)” value [1] was “no selectivity” and the “KV 1.3 Efficacy (inhibition of thallium influx as a % of positive control)” value [1] was 102 ± 22%. For the same compound, the selectivity ratio at 2 min [9] was 1.2.

For `Clc1ccc(COC(Cn2ccnc2)c2ccc(Cl)cc2Cl)cc1` (stereo not drawn) [econazole nitrate, reference compound], the IC50 [1] was 30 ± 2 µM and the “KV 1.3 Efficacy (inhibition of thallium influx as a % of positive control)” value [1] was 104 ± 10%.

With `CN(C)c1ccc(C(=C2C=CC(=[N+](C)C)C=C2)c2ccccc2)cc1.CN(C)c1ccc(C(=C2C=CC(=[N+](C)C)C=C2)c2ccccc2)cc1.O=C(O)C(=O)O.O=C([O-])C(=O)O.O=C([O-])C(=O)O` [malachite green oxalate] the IC50 [2, 13] was 1.9 µM, the “Maximum inhibition of cell viability” value [8] was 72% and the IC50 [8, 12] was 31 µM. For the same compound, the “Selectivity Fold (hERG over KV1.3)” value [1] was 6.5 fold, the “KV 1.3 IC50” value [1] was “either IC50 values >30 μM or were inactive” and the “KV 1.3 Efficacy (inhibition of thallium influx as a % of positive control)” value [1] was 89%. The “qHTS (two runs) Efficacy (inhibition of thallium influx as a % of positive control)” value [3] was 97 ± 3% and the “Confirmation Efficacy (inhibition of thallium influx as a % of positive control)” value [4] was 108 ± 7%.

In the case of `Clc1ccc(C(c2ccccc2Cl)C(Cl)(Cl)Cl)cc1` (stereo not drawn) [o,p′-DDT, 1,1,1-trichloro-2-(2-chlorophenyl)-2-(4-chlorophenyl)ethane], the IC50 [2] is reported as 2.6 µM, the IC50 [1] is reported as 35 µM and the “Selectivity Fold (hERG over KV1.3)” value [1] is reported as “no selectivity”. For the same compound, the “KV 1.3 IC50” value [1] was “either IC50 values >30 μM or were inactive”, the “KV 1.3 Efficacy (inhibition of thallium influx as a % of positive control)” value [1] was 61% and the “qHTS (two runs) Efficacy (inhibition of thallium influx as a % of positive control)” value ([3]; human) was 56 ± 2%. The “Confirmation Efficacy (inhibition of thallium influx as a % of positive control)” value [4] was 58 ± 8% and the selectivity ratio [10] was 1.6.

With `C=C[C@H]1C[N@@]2CC[C@H]1C[C@@H]2[C@@H](O)c1ccnc2ccc(OC)cc12` [quinidine, reference compound] the “KV 1.3 IC50” value [1] was “either IC50 values >30 μM or were inactive; also recorded: Inactive”.

In the case of `COC(=O)[C@H]1[C@H]2C[C@@H]3c4[nH]c5cc(OC)ccc5c4CCN3C[C@H]2C[C@@H](OC(=O)c2cc(OC)c(OC)c(OC)c2)[C@@H]1OC` [reserpine, reference compound], the IC50 [2] is reported as 1.9 µM, the IC50 [1] is reported as 58 ± 18 µM and the “KV 1.3 IC50” value [1] is reported as “either IC50 values >30 μM or were inactive”. The “KV 1.3 Efficacy (inhibition of thallium influx as a % of positive control)” value [1] was 78 ± 7%, the selectivity ratio at 2 min [9] was 11.8 and the IC50 ([4]; Confirmation IC50 (thallium influx, hERG)) was 4.9 ± 1.7 µM. The IC50 ([4]; qHTS (two runs) IC50) was 7.5 ± 3.5 µM.

In the case of `CCCCCCCC[N+](CCCCCCCC)(CCCCCCCC)CCCCCCCC.[Br-]` [tetra-n-octylammonium bromide], the IC50 ([2]; read-out: IC50 in the patch clamp assay, as stated in abstract) is reported as 0.08 µM, the IC50 [2, 13] is reported as 0.082 µM and the “Maximum inhibition of cell viability” value [8, 12] is reported as 50%. The IC50 [8, 12] was 34 µM, the “Selectivity Fold (hERG over KV1.3)” value [1] was 42 fold and the “KV 1.3 Efficacy (inhibition of thallium influx as a % of positive control)” value [1] was 72 ± 16%. The “qHTS (two runs) Efficacy (inhibition of thallium influx as a % of positive control)” value [3] was 102 ± 4% and the “Confirmation Efficacy (inhibition of thallium influx as a % of positive control)” value [4] was 100 ± 3%.

For `COc1ccc(CCN(C)CCCC(C#N)(c2ccc(OC)c(OC)c2)C(C)C)cc1OC` (stereo not drawn) [verapamil, reference compound], the “KV 1.3 Efficacy (inhibition of thallium influx as a % of positive control)” value [1] was 88 ± 12%.

For tricresyl phosphate, the IC50 [2, 13] was 8.8 µM, the “Selectivity Fold (hERG over KV1.3)” value [1] was 2.7 fold and the “KV 1.3 Efficacy (inhibition of thallium influx as a % of positive control)” value [1] was 68 ± 17%. The “qHTS (two runs) Efficacy (inhibition of thallium influx as a % of positive control)” value [3] was 82 ± 11% and the “Confirmation Efficacy (inhibition of thallium influx as a % of positive control)” value [4] was 68 ± 16%.

In the case of trixylenyl phosphate, the “Patch clamp IC50” value [2, 11] is reported as “did not inhibit hERG channel activity”, the IC50 [2, 13] is reported as over 100 µM and the “qHTS (two runs) Efficacy (inhibition of thallium influx as a % of positive control)” value [3] is reported as 67 ± 12%. For the same compound, the “Confirmation Efficacy (inhibition of thallium influx as a % of positive control)” value [4] was 43 ± 15%.
